Converted amounts (≈) assume the structure as drawn. Blank lines part the entries; values can stand above or below the compound they belong to. The source made the active and inactive calls. No cut-off for these calls is given here.
What was measured:
[1] = Inhibition of Escherichia coli IMP-7 using fluorocillin as substrate incubated for 30 mins by fluorescence based assay
[2] = Inhibition of Escherichia coli NDM-1 using fluorocillin as substrate incubated for 30 mins by fluorescence based assay
[3] = Lipophilicity, log D of the compound at pH 7.4 by HPLC-MS analysis; type: physicochemical; conditions: buffer
BlaVIM-1 = BlaVIM-1 (Escherichia coli, UniProt Q8GDC1); assay: Inhibition of Escherichia coli VIM-1 using fluorocillin as substrate incubated for 30 mins by fluorescence based assay
[4] = target: Neutrophil collagenase (Homo sapiens) (UniProt P22894); assay: Inhibition of human MMP-8 at 100 uM relative to control
Neutrophil collagenase (Homo sapiens), sequence (P22894 101-467 limits assumed): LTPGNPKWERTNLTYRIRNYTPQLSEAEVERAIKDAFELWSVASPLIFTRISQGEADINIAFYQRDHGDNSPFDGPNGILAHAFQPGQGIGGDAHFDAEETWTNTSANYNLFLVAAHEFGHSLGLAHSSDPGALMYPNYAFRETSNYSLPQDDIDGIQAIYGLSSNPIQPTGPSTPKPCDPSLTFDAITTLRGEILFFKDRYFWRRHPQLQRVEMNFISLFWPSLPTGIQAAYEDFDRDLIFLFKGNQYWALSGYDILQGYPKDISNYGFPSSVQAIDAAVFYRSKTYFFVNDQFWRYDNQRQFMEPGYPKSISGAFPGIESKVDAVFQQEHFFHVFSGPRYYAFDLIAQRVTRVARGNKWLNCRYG

HEK293 = assay: Cytotoxicity against human HEK293 cells assessed as reduction in cell viability at 100 uM relative to control; type: toxicity, cell-based; conditions: hek293, 100 µM
Pseudomonas aeruginosa [5] = assay: Antibacterial activity against VIM-2 expressing Pseudomonas aeruginosa isolates assessed as inhibition of bacterial growth by microdilution method; type: functional, organism-based
HepG2 = assay: Cytotoxicity against human HepG2 cells assessed as reduction in cell viability at 100 uM relative to control; type: toxicity, cell-based; conditions: hepg2, 100 µM
[6] = target: T1, Matrix metalloproteinase-14 (Homo sapiens, UniProt P50281); assay: Inhibition of human MMP-14 at 100 uM relative to control
A549 = assay: Cytotoxicity against human A549 cells assessed as reduction in cell viability at 100 uM relative to control; type: toxicity, cell-based; conditions: a549, 100 µM
Pseudomonas aeruginosa [7] = assay: Inhibition of Pseudomonas aeruginosa quorum sensing system LasB at 100 uM
[8] = target: T2, Interstitial collagenase (Homo sapiens) (UniProt P03956); assay: Inhibition of human MMP-1 at 100 uM relative to control
T2 sequence (whole entry): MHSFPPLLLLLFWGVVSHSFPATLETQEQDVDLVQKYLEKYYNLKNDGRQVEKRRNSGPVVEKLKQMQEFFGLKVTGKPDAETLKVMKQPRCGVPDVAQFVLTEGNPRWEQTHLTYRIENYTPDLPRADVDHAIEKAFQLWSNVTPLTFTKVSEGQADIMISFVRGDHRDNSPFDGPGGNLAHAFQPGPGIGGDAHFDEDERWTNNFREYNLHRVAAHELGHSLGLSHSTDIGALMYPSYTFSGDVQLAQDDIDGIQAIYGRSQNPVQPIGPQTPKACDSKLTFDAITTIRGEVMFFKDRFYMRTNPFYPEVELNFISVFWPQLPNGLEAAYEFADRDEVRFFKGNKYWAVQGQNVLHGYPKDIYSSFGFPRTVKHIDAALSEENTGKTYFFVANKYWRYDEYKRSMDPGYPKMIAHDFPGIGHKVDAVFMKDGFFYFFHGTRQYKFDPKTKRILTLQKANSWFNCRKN

[9] = target: 72 kDa type IV collagenase (Homo sapiens, UniProt P08253); assay: Inhibition of human MMP-2 at 100 uM relative to control
72 kDa type IV collagenase, sequence (P08253 110-660 limits assumed): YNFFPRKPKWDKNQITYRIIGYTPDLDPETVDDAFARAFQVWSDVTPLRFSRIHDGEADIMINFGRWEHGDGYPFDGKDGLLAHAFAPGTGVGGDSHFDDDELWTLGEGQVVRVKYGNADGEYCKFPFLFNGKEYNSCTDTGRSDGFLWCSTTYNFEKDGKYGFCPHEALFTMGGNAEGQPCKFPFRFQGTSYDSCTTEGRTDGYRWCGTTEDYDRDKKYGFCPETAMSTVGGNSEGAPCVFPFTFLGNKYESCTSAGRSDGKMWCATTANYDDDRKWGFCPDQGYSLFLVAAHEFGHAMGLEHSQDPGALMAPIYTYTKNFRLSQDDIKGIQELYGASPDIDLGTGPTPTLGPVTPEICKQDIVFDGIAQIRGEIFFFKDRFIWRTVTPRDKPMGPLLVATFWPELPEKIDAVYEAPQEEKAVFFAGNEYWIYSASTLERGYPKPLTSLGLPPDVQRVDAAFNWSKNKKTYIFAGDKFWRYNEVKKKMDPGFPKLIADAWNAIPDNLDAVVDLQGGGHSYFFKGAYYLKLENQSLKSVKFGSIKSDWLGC

[10] = target: Stromelysin-1 (Homo sapiens) (UniProt P08254); assay: Inhibition of human MMP-3 at 100 uM relative to control
Stromelysin-1 (Homo sapiens), sequence (P08254 100-477 limits assumed): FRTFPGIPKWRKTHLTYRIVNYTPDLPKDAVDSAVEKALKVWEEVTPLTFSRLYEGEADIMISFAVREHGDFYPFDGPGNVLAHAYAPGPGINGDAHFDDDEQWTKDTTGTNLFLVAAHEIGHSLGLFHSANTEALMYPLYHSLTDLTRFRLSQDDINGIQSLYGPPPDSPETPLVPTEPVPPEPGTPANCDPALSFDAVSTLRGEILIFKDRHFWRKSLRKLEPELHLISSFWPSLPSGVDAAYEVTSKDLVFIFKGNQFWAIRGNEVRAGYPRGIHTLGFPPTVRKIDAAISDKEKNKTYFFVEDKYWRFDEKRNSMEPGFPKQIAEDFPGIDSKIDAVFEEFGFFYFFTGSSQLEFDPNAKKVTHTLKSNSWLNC

Escherichia coli [11] = assay: Antibacterial activity against VIM-1 expressing Escherichia coli isolates assessed as inhibition of bacterial growth by microdilution method; type: functional, organism-based
Escherichia coli [12] = assay: Antibacterial activity against NDM-1 expressing Escherichia coli isolates assessed as inhibition of bacterial growth by microdilution method; type: functional, organism-based
Escherichia coli [13] = assay: Antibacterial activity against IMP-1 expressing Escherichia coli isolates assessed as inhibition of bacterial growth by microdilution method; type: functional, organism-based
[14] = target: T3, Matrilysin (Homo sapiens) (UniProt P09237); assay: Inhibition of human MMP-7 at 100 uM relative to control
T3 sequence (whole entry): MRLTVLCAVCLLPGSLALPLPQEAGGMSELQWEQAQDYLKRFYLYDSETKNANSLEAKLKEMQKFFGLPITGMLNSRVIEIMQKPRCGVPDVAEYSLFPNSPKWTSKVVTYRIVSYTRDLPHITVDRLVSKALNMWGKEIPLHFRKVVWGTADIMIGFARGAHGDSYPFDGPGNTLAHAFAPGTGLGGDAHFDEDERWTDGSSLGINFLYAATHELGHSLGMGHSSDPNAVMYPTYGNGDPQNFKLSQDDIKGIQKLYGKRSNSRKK

[15] = target: T1, Matrix metalloproteinase-14; assay: Inhibition of human MMP-14
[16] = Toxicity in zebrafish embryo assessed as maximum tolerated concentration measured up to 120 hrs; set-up: species or system Danio rerio; conditions: in vivo, read-out: MTC
[17] = target: Disintegrin and metalloproteinase domain-containing protein 17 (Homo sapiens) (UniProt P78536); assay: Inhibition of human TACE at 100 uM relative to control
Disintegrin and metalloproteinase domain-containing protein 17 (Homo sapiens), sequence (P78536 whole entry, the tested form may be a part): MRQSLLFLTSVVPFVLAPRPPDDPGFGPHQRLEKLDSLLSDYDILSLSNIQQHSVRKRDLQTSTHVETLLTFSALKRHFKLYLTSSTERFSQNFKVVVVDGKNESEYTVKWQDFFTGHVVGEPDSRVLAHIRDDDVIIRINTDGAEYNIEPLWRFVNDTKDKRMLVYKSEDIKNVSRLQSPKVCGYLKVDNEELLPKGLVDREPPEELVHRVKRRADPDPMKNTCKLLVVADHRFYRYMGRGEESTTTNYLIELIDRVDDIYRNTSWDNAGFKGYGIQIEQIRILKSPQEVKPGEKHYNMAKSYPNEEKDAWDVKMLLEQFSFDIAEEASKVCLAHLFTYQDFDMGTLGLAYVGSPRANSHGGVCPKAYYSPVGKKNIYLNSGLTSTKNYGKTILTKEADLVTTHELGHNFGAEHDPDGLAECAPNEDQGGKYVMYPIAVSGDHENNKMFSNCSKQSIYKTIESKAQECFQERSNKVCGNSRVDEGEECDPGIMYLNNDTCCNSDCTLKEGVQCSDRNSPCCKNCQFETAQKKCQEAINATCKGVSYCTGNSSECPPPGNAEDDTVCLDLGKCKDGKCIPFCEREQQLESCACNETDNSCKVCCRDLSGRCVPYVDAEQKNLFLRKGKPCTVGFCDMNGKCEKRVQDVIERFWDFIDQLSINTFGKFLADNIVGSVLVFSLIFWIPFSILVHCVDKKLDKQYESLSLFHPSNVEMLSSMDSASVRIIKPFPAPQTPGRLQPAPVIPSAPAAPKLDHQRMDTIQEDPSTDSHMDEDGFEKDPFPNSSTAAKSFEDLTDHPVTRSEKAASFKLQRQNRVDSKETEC

Enterobacter cloacae [18] = assay: Antibacterial activity against GIM-1 producing Enterobacter cloacae T2218 clinical isolates assessed as inhibition of bacterial growth by microdilution method; type: functional
Escherichia coli [19] = assay: Antibacterial activity against KPC-2 producing Escherichia coli T2435 clinical isolates assessed as inhibition of bacterial growth by microdilution method; type: functional
Pseudomonas aeruginosa [20] = assay: Antibacterial activity against IMP-1 producing Pseudomonas aeruginosa T2325 clinical isolates assessed as inhibition of bacterial growth by microdilution method
Pseudomonas aeruginosa [21] = assay: Antibacterial activity against VIM-1 producing Pseudomonas aeruginosa T2357 clinical isolates assessed as inhibition of bacterial growth by microdilution method; type: functional
Klebsiella pneumoniae [22] = assay: Antibacterial activity against NDM-1 producing Klebsiella pneumoniae T2301 clinical isolates assessed as inhibition of bacterial growth by microdilution method; type: functional
Acinetobacter baumannii = assay: Antibacterial activity against OXA-23 producing Acinetobacter baumannii T2434 clinical isolates assessed as inhibition of bacterial growth by microdilution method; type: functional
Enterobacter cloacae [23] = assay: Antibacterial activity against VIM-1 producing Enterobacter cloacae T2353 clinical isolates assessed as inhibition of bacterial growth by microdilution method; type: functional
Escherichia coli [24] = assay: Antibacterial activity against NDM-7 producing Escherichia coli T2239 clinical isolates assessed as inhibition of bacterial growth by microdilution method; type: functional
Escherichia coli [25] = assay: Antibacterial activity against NDM-5 producing Escherichia coli T2351 clinical isolates assessed as inhibition of bacterial growth by microdilution method
Serratia marcescens = assay: Antibacterial activity against NDM-1 producing Serratia marcescens T2352 clinical isolates assessed as inhibition of bacterial growth by microdilution method; type: functional
Klebsiella pneumoniae [26] = assay: Antibacterial activity against imipenem-resistant NDM-1-producing Klebsiella pneumoniae T2301 infected in Galleria mellonella larvae assessed as survival rate at 0.12 ug injected via proleg measured after 3 days by Kaplan-Meier method; type: functional; conditions: dose 0.12 µg; time 3 day
Enterobacter cloacae [27] = assay: Antibacterial activity against NDM-1 producing Enterobacter cloacae T2311 clinical isolates assessed as inhibition of bacterial growth by microdilution method; type: functional

Structure (SMILES): O=C(CCS)Nc1ccc(Cl)c(Cl)c1
inhibition [4]: 22%
Activity (HEK293): < 10%
Activity (Pseudomonas aeruginosa [5]): inactive
Activity (HepG2): < 10%
IC50 [1]: 5000 nM
inhibition [6]: 18%
Activity (A549): < 10%
IC50 [2]: 1300 nM
inhibition (Pseudomonas aeruginosa [7]): Active
logD [3]: 5.34
inhibition [8]: < 10%
inhibition [9]: 14%
inhibition [10]: < 10%
Activity (Escherichia coli [11]): inactive
Activity (Escherichia coli [12]): inactive
Activity (Escherichia coli [13]): inactive
IC50 (BlaVIM-1): 100 nM
inhibition [14]: < 10%

Structure (SMILES): CS(=O)(=O)Nc1cccc(NC(=O)CCS)c1
IC50 [2]: 2200 nM
logD [3]: 0.62
IC50 (BlaVIM-1): 1300 nM

Structure (SMILES): CC(=O)c1ccc(NC(=O)CCS)cc1
IC50 [1]: 5500 nM
IC50 [2]: 1500 nM
logD [3]: 1.35
IC50 (BlaVIM-1): 400 nM

Structure (SMILES): O=C(CCS)Nc1ccccc1C(=O)O
IC50 [15]: 12000 nM
inhibition [4]: < 10%
Activity (HEK293): < 10%
Activity (Pseudomonas aeruginosa [5]): inactive
Activity (HepG2): < 10%
IC50 [1]: 4100 nM
MNTC at 120 h [16]: ≥ 150 µM
inhibition [6]: 77%
Activity (A549): < 10%
IC50 [2]: 3400 nM
logD [3]: -0.92
inhibition [8]: < 10%
inhibition [9]: < 10%
inhibition [10]: 17%
Activity (Escherichia coli [11]): inactive
Activity (Escherichia coli [12]): inactive
Activity (Escherichia coli [13]): inactive
inhibition [17]: < 10%
IC50 (BlaVIM-1): 2200 nM
inhibition [14]: 11%

Structure (SMILES): N=C(N)NS(=O)(=O)c1ccc(NC(=O)CCS)cc1
inhibition [4]: < 10%
Activity (HEK293): < 10%
Activity (Pseudomonas aeruginosa [5]): inactive
Activity (HepG2): < 10%
IC50 [1]: 3300 nM
MNTC at 120 h [16]: ≥ 150 µM
inhibition [6]: < 10%
Activity (A549): < 10%
IC50 [2]: 2100 nM
logD [3]: -0.5
inhibition [8]: < 10%
inhibition [9]: < 10%
inhibition [10]: < 10%
Activity (Escherichia coli [11]): inactive
Activity (Escherichia coli [12]): inactive
Activity (Escherichia coli [13]): inactive
inhibition [17]: 32%
IC50 (BlaVIM-1): 500 nM
inhibition [14]: < 10%

Structure (SMILES): C[C@@H](O)[C@H]1C(=O)N2C(C(=O)O)=C(SCCNC=N)C[C@H]12 [IMIPENEM ANHYDROUS]
MIC (Enterobacter cloacae [18]): 2 µg/mL (≈ 6.68 µM)
MIC (Escherichia coli [19]): 4 µg/mL (≈ 13.4 µM)
MIC (Pseudomonas aeruginosa [20]): 16 µg/mL (≈ 53.4 µM)
MIC (Pseudomonas aeruginosa [21]): 256 µg/mL (≈ 855 µM)
MIC (Klebsiella pneumoniae [22]): 16 µg/mL (≈ 53.4 µM)
MIC (Acinetobacter baumannii): 32 µg/mL (≈ 107 µM)
MIC (Enterobacter cloacae [23]): 4 µg/mL (≈ 13.4 µM)
MIC (Escherichia coli [24]): 32 µg/mL (≈ 107 µM)
MIC (Escherichia coli [25]): 8 µg/mL (≈ 26.7 µM)
MIC (Serratia marcescens): 256 µg/mL (≈ 855 µM)
Activity (Klebsiella pneumoniae [26]): <=25%
MIC (Enterobacter cloacae [27]): 8 µg/mL (≈ 26.7 µM)

Continued, values first:

IC50 [1]: 2100 nM
IC50 [2]: 6500 nM
logD [3]: -0.31
IC50 (BlaVIM-1): 500 nM
Structure (SMILES): Nc1ccc(NC(=O)CCS)cc1

IC50 [1]: 3300 nM
IC50 [2]: 2200 nM
logD [3]: 1.14
IC50 (BlaVIM-1): 200 nM
Structure (SMILES): O=C(CCS)Nc1ccccc1O

IC50 [1]: 5800 nM
IC50 [2]: 6400 nM
logD [3]: 0.28
IC50 (BlaVIM-1): 1500 nM
Structure (SMILES): CN1CCN(Cc2ccc(NC(=O)CCS)cc2)CC1

IC50 [1]: 4600 nM
IC50 [2]: 700 nM
logD [3]: 0.49
IC50 (BlaVIM-1): 900 nM
Structure (SMILES): O=C(O)[C@H]1CCCCN1C(=O)C(CS)Cc1ccccc1 (stereo partly specified)

IC50 [1]: 3400 nM
IC50 [2]: 4000 nM
logD [3]: 0.32
IC50 (BlaVIM-1): 200 nM
Structure (SMILES): O=C(CCS)Nc1ccc(O)cc1

Reference: ChEMBL document CHEMBL5046281, “N-Aryl Mercaptopropionamides as Broad-Spectrum Inhibitors of Metallo-β-Lactamases” (J Med Chem, 2022)
